# Test results: patent US20230364130A1, “INHALED ARGON FOR TREATING A PATIENT SUFFERING FROM CARDIOVASCULAR DISEASE” (L'Air Liquide, Sociëtë Anonyme Pour l'Etude et …, priority 2020, published 2023)
# Tests used:
# rabbits [1] = assay: histology score of organs after supraceliac aortic clamping and reperfusion; assay type: in vivo, rabbit (male, New Zealand breed)
# Procedure: (§1) More specifically, the model used is a lagomorphic model of multiple organ failure by clamping the supraceliac aorta.
# (§2) After a period of hemodynamic stabilization, the supraceliac aorta is clamped with an atraumatic clamp for 30 minutes. In order to avoid any thrombus formation at the level of the clamping, a bolus of unfractionated heparin (250 IU/kg) is administered to the rabbit in question, 5 minutes before clamping.
# (§3) The rabbits are separated into 2 groups: • a Control Group (CG) inhaling an N2/O2 binary gas mixture containing 30% of oxygen and the rest as nitrogen (vol %); • an Argon Group (AG) according to the invention inhaling an Ar/O2 binary gas mixture containing 30% of oxygen and the rest as argon (vol %), i.e. 70 vol % of argon.
# FIG. 3 represents the histology score of several organs: heart, liver, lungs, kidneys and jejunum (i.e. intestines).
# rabbits [2] = assay: additional preliminary study: suprarenal then supraceliac aortic clamping, calculated pulmonary vascular resistance; assay type: in vivo, rabbit; conditions: argon 70 vol % / oxygen 30 vol %, during suprarenal then supraceliac aortic clamping
# Procedure: A first clamping of the aorta of these rabbits was performed above the renal artery, followed by clamping at the supraceliac level. The objective is to see the effect of argon during a gradual modification of systemic resistance.
# rabbits [3] = assay: model of multiple organ failure by clamping the supraceliac aorta (30 min) then reperfusion; hemodynamics and acid-base parameters; assay type: in vivo, rabbit (male, New Zealand breed)
# Procedure: as §1
# The rabbits were sedated by intravenous injection (Zoletil® 15 mg/kg), then intubated to be ventilated. Anesthesia is completed by intravenous administration of thiopental (10 mg/kg) and methadone hydrochloride (Comfortan® 0.6 mg/kg); and maintained as needed with thiopental boluses.
# as §2
# The effectiveness of the clamping is verified by the absence of an aortic pulse downstream of the clamping. Similarly, the absence of thrombus is assessed by the presence of an aortic pulse after unclamping.
# as §3
# The cardiac output is measured by a cardiac output valve before, during and after ischemia (Isch.) of the aorta.
# [4] = after 300 minutes of reperfusion
structure (smiles),measurement,setting,value
[Ar] [argon],jejunal lesions vs Control Group,"rabbits [1]; jejunum, histology",no difference
same,tubular necrosis lesions vs Control Group,"rabbits [1]; kidneys, histology",significantly greater in the Control Group than in the Argon Group
same,"histology score, centrilobular clarification vs Control Group",rabbits [1]; liver,significantly lower
same,congestive and edematous lesions of the lung parenchyma vs Control Group,"rabbits [1]; lungs, histology",the difference was not significant
same,subendocardial necrosis lesions vs Control Group,"rabbits [1]; myocardium, histology",no significant difference
same,pulmonary vascular resistance vs animals exposed to oxygen-enriched air,rabbits [2],immediately reduced
same,"pH, HCO3- and lactate parameters vs Control Group",rabbits [3]; acid-base biochemical parameters,significantly preserved within normal values
same,norepinephrine dose required to maintain a stable arterial pressure,rabbits [3]; after 15 minutes of reperfusion,1.4 ± 0.6 µg/kg/min
same,cardiac output,"rabbits [3]; after 30 minutes of gas inhalation, before clamping",99 ± 10 mL/min/kg
same,cardiac output,rabbits [3]; [4],60 ± 4 mL/min/kg
same,pH,rabbits [3]; [4],7.16
same,cardiac output vs Control Group,"rabbits [3]; after unclamping, up to 240 minutes of reperfusion",no significant difference between the groups
same,norepinephrine dose required to maintain a stable arterial pressure,rabbits [3]; at the end of the 300-minute monitoring,3.3 ± 1.6 µg/kg/min
same,cardiac output,"rabbits [3]; at the start of the experiment, inhaled Ar/O2 70/30 vol %",108 ± 7 mL/min/kg
same,mean arterial pressure,rabbits [3]; during the ischemia phase following clamping,130±7 mmHg
same,mean arterial pressure vs Control Group,"rabbits [3]; during the reperfusion phase, after unclamping",no significant difference between the groups
same,attenuated decrease of cardiac output vs Control Group,"rabbits [3]; immediately after beginning of surgery, upon clamping",approximately 20%
same,norepinephrine doses to maintain mean arterial pressure vs Control Group,rabbits [3]; throughout reperfusion,significantly lower
same,heart rate vs Control Group,rabbits [3]; throughout the protocol,no significant difference between the groups
